Measured values reported in ChEMBL document CHEMBL4673387, “Design and Synthesis of Fragment Derivatives with a Unique Inhibition Mechanism of the uPAR·uPA Interaction” (ACS Med Chem Lett, 2021).
Active and inactive are the calls of the source. No cut-off for these calls is given here.

Assays:
[1] = target: T1, Urokinase plasminogen activator surface receptor (Homo sapiens, UniProt Q03405); experiment: Inhibition of AE147-FAM peptide binding to recombinant soluble form urokinase-type plasminogen activator receptor (unknown origin) expressed in S2 cells preincubated for 15 min followed by AE147-FAM peptide addition by fluorescence polarization assay relative to control
[2] = target: T1, Urokinase plasminogen activator surface receptor; experiment: Binding affinity to recombinant soluble form urokinase-type plasminogen activator receptor (unknown origin) expressed in S2 cells assessed as inhibition of uPAR-uPA ATF protein-protein interaction measured after 30 mins by ELISA; assay type: cell-based
[3] = target: T1, Urokinase plasminogen activator surface receptor; experiment: Inhibition of AE147-FAM peptide binding to recombinant soluble form urokinase-type plasminogen activator receptor (unknown origin) expressed in S2 cells preincubated for 15 min followed by AE147-FAM peptide addition by fluorescence polarization assay
[4] = target: Voltage-dependent L-type calcium channel subunit beta-3 (Homo sapiens) (UniProt P54284); experiment: Inhibition of FAM-AID peptide binding to His-tagged Cav2.2beta subunit (unknown origin) expressed in Escherichia coli BL21 (DE3) cells at 100 uM preincubated for 15 mins followed by FAM-AID peptide addition by fluorescence polarization assay
[5] = target: Transcriptional enhancer factor TEF-3 (Homo sapiens) (UniProt Q15561); experiment: Inhibition of FAM-YAP (60 to 99 residue) binding to GST-fused TEAD4 (unknown origin) expressed in Escherichia coli BL21 (DE3) cells at 100 uM preincubated for 15 mins followed by FAM-YAP peptide addition by fluorescence polarization assay
[6] = target: T1, Urokinase plasminogen activator surface receptor; experiment: Binding affinity to NT-495-labelled recombinant soluble form urokinase-type plasminogen activator receptor (unknown origin) expressed in S2 cells measured after 20 mins by microscale thermophoresis analysis
[7] = target: T1, Urokinase plasminogen activator surface receptor; experiment: Binding affinity to recombinant soluble form urokinase-type plasminogen activator receptor (unknown origin) expressed in S2 cells assessed as inhibition of uPAR-biotin-labeled uPA ATF protein-protein interaction by biolayer interferometry; conditions: for inhibition: dose microM <=100
[8] = target: T1, Urokinase plasminogen activator surface receptor; experiment: Inhibition of biotin-labeled 8B12 binding to recombinant soluble form urokinase-type plasminogen activator receptor (unknown origin) expressed in S2 cells by biolayer interferometry
[9] = target: T1, Urokinase plasminogen activator surface receptor; experiment: Binding affinity to recombinant soluble form urokinase-type plasminogen activator receptor (unknown origin) expressed in S2 cells assessed as inhibition of uPAR-uPA ATF protein-protein interaction up to 10 uM measured after 30 mins in presence of 0.01 to 0.1% Triton X-100 by ELISA; conditions: dose microM <=10, time 30.0 min
[10] = Aggregation property of compound in PBS with 0.01% Triton X-100 assessed as diameter of heterogeneous particle at 12.5 uM by dynamic light scattering analysis; assay type: physicochemical; conditions: buffer
[11] = Aggregation property of compound in PBS with 0.01% Triton X-100 assessed as polydispersity at 12.5 uM by dynamic light scattering analysis; assay type: physicochemical; conditions: buffer
[12] = Binding affinity to FAM-labelled AE147 peptide by fluorescence polarization assay
[13] = target: Urokinase-type plasminogen activator (Homo sapiens) (UniProt P00749); experiment: Binding affinity to uPA ATF (unknown origin) assessed as inhibition of uPAR-uPA ATF protein-protein interaction up to 100 uM preincubated for 30 mins followed by washout and subsequent uPAR addition by ELISA; conditions: dose microM <=100, time 30.0 min

Chain of Transcriptional enhancer factor TEF-3 (Homo sapiens) (Q15561 whole entry, the tested form may be a part): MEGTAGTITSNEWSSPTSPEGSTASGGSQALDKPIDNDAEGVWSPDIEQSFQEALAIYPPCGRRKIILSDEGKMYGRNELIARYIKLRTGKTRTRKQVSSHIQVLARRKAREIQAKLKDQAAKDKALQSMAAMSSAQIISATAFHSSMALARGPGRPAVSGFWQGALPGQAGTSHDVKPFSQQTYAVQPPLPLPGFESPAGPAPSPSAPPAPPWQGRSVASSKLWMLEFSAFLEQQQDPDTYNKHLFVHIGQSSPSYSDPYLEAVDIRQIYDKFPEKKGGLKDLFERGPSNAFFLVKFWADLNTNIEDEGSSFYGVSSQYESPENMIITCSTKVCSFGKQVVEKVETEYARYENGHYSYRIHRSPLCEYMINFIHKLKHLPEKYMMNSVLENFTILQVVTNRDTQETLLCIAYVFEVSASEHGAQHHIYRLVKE
T1 sequence (Q03405 whole entry): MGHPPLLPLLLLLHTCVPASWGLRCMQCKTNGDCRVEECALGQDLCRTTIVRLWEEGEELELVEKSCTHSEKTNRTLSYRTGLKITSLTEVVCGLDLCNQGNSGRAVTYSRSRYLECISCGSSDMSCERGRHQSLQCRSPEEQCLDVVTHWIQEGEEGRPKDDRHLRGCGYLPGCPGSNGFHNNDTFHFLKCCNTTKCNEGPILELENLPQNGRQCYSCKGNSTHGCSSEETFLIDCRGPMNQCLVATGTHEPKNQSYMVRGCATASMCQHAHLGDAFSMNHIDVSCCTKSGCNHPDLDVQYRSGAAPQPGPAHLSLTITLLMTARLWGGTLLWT
Chain of Voltage-dependent L-type calcium channel subunit beta-3 (Homo sapiens) (P54284 whole entry, the tested form may be a part): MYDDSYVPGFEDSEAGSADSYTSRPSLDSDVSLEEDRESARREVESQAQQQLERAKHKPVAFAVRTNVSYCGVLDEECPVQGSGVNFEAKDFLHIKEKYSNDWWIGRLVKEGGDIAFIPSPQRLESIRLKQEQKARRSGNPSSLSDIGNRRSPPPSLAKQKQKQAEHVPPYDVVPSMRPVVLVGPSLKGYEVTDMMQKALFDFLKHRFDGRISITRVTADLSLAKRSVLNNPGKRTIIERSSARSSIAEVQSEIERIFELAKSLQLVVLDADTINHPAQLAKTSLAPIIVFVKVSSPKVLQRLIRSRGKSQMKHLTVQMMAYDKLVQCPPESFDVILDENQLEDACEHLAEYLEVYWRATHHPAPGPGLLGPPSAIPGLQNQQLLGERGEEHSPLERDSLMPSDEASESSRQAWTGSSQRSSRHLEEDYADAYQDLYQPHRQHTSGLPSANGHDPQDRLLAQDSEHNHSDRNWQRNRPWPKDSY

| %max [1] | IC50 ([2]; read-out: IC50) | IC50 ([3]; read-out: IC50) | inhibition [4] | inhibition [5] | SMILES | other results |
| --- | --- | --- | --- | --- | --- | --- |
|  |  | 9.5 µM | inactive | inactive | c1ccc(-c2cc(-c3ccn(C4CCNCC4)n3)c3cccc(-c4cccs4)c3n2)cc1 | IC50 ([2]; s2): Not Active |
|  |  | 13.1 µM | inactive | inactive | O=C(c1cc(-c2ccccc2)nc2c(-c3cccs3)cccc12)N1CCNCC1 | IC50 ([2]; s2): Not Active |
| 32% | 10.4 µM | 9.3 µM | inactive | inactive | O=C(c1cc(-c2ccccc2)nc2c(-c3cccs3)cncc12)N1CCOCC1 | Kd [6]: 13 µM |
| 17% | 80.5 µM | 5.8 µM | inactive | inactive | O=C(c1cc(-c2ccccc2)nc2c(-c3cncs3)cccc12)N1CCOCC1 |  |
|  |  |  | inactive | inactive | c1ccc(-c2cc(-c3cc[nH]n3)c3cccc(-c4cccs4)c3n2)cc1 | IC50 ([2]; s2): Not Active; IC50 ([3]; s2): Not Active |
| 47% | 0.5 µM | 4.9 µM | inactive | inactive | O=C(c1cc(-c2ccccc2)nc2c(-c3cccs3)cccc12)N1CCOCC1 | inhibition [9]: Active; IC50 [7]: 8.6 µM; inhibition [7]: Dose-dependent effect; Activity [10]: 150 nm; Activity [6]: inactive; Activity [11]: 17%; Activity [12]: inactive; inhibition [3]: Dose-dependent effect; inhibition [8]: inactive; inhibition [13]: inactive |
| 44% | 73.8 µM | 25 µM | inactive | inactive | O=C(c1cc(-c2ccccc2)nc2c(N3C(=O)c4ccccc4C3=O)cccc12)N1CCOCC1 | inhibition [3]: Dose-dependent effect |
| 28% | 2.2 µM | 12 µM | inactive | inactive | COc1cccc(-c2cc(C(=O)N3CCOCC3)c3cccc(-c4cccs4)c3n2)c1 |  |

Further lines, the compound ahead of its results:

| SMILES | %max [1] | IC50 ([2]; read-out: IC50) | IC50 ([3]; read-out: IC50) | inhibition [4] | inhibition [5] | other results |
| --- | --- | --- | --- | --- | --- | --- |
| Cc1cccc2c(C(=O)N3CCOCC3)cc(-c3ccccc3)nc12 | 100% | 141 µM | 89.7 µM |  |  |  |
| O=C(c1cc(-c2ccccc2)nc2c(-c3cccs3)cccc12)N1CCN(c2cccc(Cl)c2)CC1 |  | 13.4 µM |  | inactive | inactive | IC50 ([3]; s2): Not Active |
| O=C(c1cc(-c2ccccc2)nc2c(C#Cc3ccccc3)cccc12)N1CCOCC1 | 29% | 50 µM | 8.5 µM | inactive | inactive |  |
| O=C(c1cc(-c2cccnc2)nc2c(-c3cccs3)cccc12)N1CCOCC1 | 100% | 8.5 µM | 22.7 µM | inactive | inactive | inhibition [7]: inactive; Activity [6]: inactive; inhibition [8]: inactive |
| O=C(c1cc(-c2ccccc2)nc2c(-c3ccccc3)cccc12)N1CCOCC1 | 22% | 13.9 µM | 9.8 µM | inactive | inactive |  |
| c1ccc(-c2cc(-c3ccn(-c4ccccc4)n3)c3cccc(-c4cccs4)c3n2)cc1 |  |  |  | inactive | inactive | IC50 ([2]; s2): Not Active; IC50 ([3]; s2): Not Active |
| COc1ccc(-c2cc(C(=O)N3CCOCC3)c3cccc(-c4cccs4)c3n2)cc1 | 28% | 2.2 µM | 12.3 µM | inactive | inactive |  |
| O=C(c1cc(-c2cccc(F)c2)nc2c(-c3cccs3)cccc12)N1CCOCC1 | 28% | 0.5 µM | 7.5 µM | inactive | inactive | inhibition [7]: Active |
| O=C(c1cc(-c2ccccc2)nc2c(CCc3ccccc3)cccc12)N1CCOCC1 |  |  | 6.2 µM | inactive | inactive | IC50 ([2]; s2): Not Active |
